Laboratory results: PubChem BioAssay (NCI)
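Interpolation was linear, between the two tested concentrations surrounding the appropriate level; five concentrations were tested over 48 hours in 96-well plates. GI50 is the concentration that inhibits growth by half. Definition used: TGI = concentration required for complete inhibition of growth.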 Where a SMILES comes first, the peptide text is derived from it. The star is where a group is joined. Fmoc = O=C(OCC1c2ccccc2-c2ccccc21)*; Boc = CC(C)(C)OC(=O)*

Key:
Assay in all cases: NCI-60 cell line screen, 48 h
PC-3 prostate = tested on: PC-3 prostate
OVCAR-4 ovarian = tested on: OVCAR-4 ovarian
RXF 393 renal = tested on: RXF 393 renal
CCRF-CEM leukemia = tested on: CCRF-CEM leukemia
SW-620 colon = tested on: SW-620 colon
SK-MEL-5 melanoma = tested on: SK-MEL-5 melanoma
MALME-3M melanoma = tested on: MALME-3M melanoma
K-562 leukemia = tested on: K-562 leukemia
DU-145 prostate = tested on: DU-145 prostate
SK-MEL-28 melanoma = tested on: SK-MEL-28 melanoma

| Compound | TGI (PC-3 prostate) | TGI (OVCAR-4 ovarian) | TGI (RXF 393 renal) | TGI (CCRF-CEM leukemia) | TGI (SW-620 colon) | TGI (SK-MEL-5 melanoma) | TGI (MALME-3M melanoma) | TGI (K-562 leukemia) | TGI (DU-145 prostate) | TGI (SK-MEL-28 melanoma) | GI50 (PC-3 prostate) | GI50 (OVCAR-4 ovarian) | GI50 (RXF 393 renal) | GI50 (CCRF-CEM leukemia) | GI50 (SW-620 colon) | GI50 (SK-MEL-5 melanoma) | GI50 (MALME-3M melanoma) | GI50 (K-562 leukemia) | GI50 (DU-145 prostate) | GI50 (SK-MEL-28 melanoma) |
| --- | --- | --- | --- | --- | --- | --- | --- | --- | --- | --- | --- | --- | --- | --- | --- | --- | --- | --- | --- | --- |
| C=[N+](CNC(=O)CNC(=O)C(Cc1ccccc1)NC(=O)OC(C)(C)C)C(=O)CNC(=O)C(Cc1ccccc1)NC(=O)OC(C)(C)C (stereo not given) | > 100 µM | > 100 µM | > 100 µM | > 100 µM | > 100 µM | > 100 µM | > 100 µM | > 100 µM | > 100 µM | > 100 µM | – | – | – | – | – | – | – | – | – | – |
| COc1cc(C2S/C(=C/c3ccccc3)C(=O)N2c2ccccn2)cc(OC)c1OC (stereo not given) | > 81.7 µM | 63.2 µM | 22.8 µM | > 100 µM | 64.3 µM | 56.6 µM | 27.5 µM | > 100 µM | 31.9 µM | > 74 µM | – | – | – | – | – | – | – | – | – | – |
| Cc1ccc(S(=O)(=O)NC(=O)NCC(=O)O)cc1 | > 100 µM | > 100 µM | > 100 µM | > 100 µM | > 100 µM | > 100 µM | > 100 µM | > 100 µM | > 100 µM | > 100 µM | – | – | – | – | – | – | – | – | – | – |
| COc1ccc2oc3c(ccc[n+]3C)c(=O)c2c1 | > 100 µM | > 100 µM | > 100 µM | > 100 µM | > 100 µM | > 100 µM | > 100 µM | > 100 µM | > 100 µM | > 100 µM | – | – | – | – | – | – | – | – | – | – |
| N#CCCN(CCC#N)c1ccc(/C=C2\N=C(c3ccccc3)N(c3ccccc3)C2=O)cc1 | > 100 µM | > 100 µM | > 100 µM | > 100 µM | > 100 µM | > 100 µM | > 100 µM | > 100 µM | > 100 µM | > 100 µM | – | – | – | – | – | – | – | – | – | – |
| COc1cc2c3c4c1OCc1c5c(cc(c1-4)CC3[N+](C)(C)CC2)OCO5 (stereo not given) | > 100 µM | > 100 µM | > 100 µM | > 100 µM | > 100 µM | > 100 µM | > 100 µM | > 100 µM | > 100 µM | > 100 µM | – | – | – | – | – | – | – | – | – | – |
| CCCCn1c2c(n(CCCC)c1=[Se])-c1c(n(CCCC)c(=[Se])n1CCCC)S[Se][Se]S2 | 34.7 µM | 25.8 µM | > 71.4 µM | 55.6 µM | 19.6 µM | 34.6 µM | 15.4 µM | > 66.9 µM | 63.4 µM | > 100 µM | – | – | – | – | – | – | – | – | – | – |
| CC(C)[C@H]1NC(=O)[C@H]2N=C(O[C@@H]2C)[C@@H]2CCCN2C(=O)[C@H](Cc2ccccc2)NC(=O)[C@@H]2COC(=N2)[C@@H](Cc2ccccc2)NC(=O)[C@@H]2COC1=N2 | > 100 µM | > 100 µM | > 100 µM | > 100 µM | > 100 µM | > 100 µM | > 100 µM | > 100 µM | > 100 µM | > 100 µM | – | – | – | – | – | – | – | – | – | – |
| C[Si](C)(C)C#CCOC=C1CC1 | > 100 µM | > 100 µM | > 100 µM | > 100 µM | > 100 µM | > 100 µM | > 100 µM | > 100 µM | > 100 µM | > 100 µM | – | – | – | – | – | – | – | – | – | – |
| CC(C)(C)OC(=O)NCCCCC(NC(=O)C(Cc1c[nH]c2ccccc12)NC(=O)OCC1c2ccccc2-c2ccccc21)C(=O)O (stereo not given) (Fmoc-Trp-Lys(Boc)-OH; configuration not given here) | > 100 µM | > 100 µM | > 100 µM | 61 µM | > 100 µM | > 100 µM | > 100 µM | 38.5 µM | > 100 µM | > 100 µM | – | – | – | – | – | – | – | – | – | – |
| CC1(C)N=C(N)N=C(N)N1CCCCc1ccccc1 | > 77 µM | > 100 µM | > 100 µM | > 100 µM | > 100 µM | 12.5 µM | 83.4 µM | > 100 µM | > 100 µM | > 100 µM | – | – | – | – | – | – | – | – | – | – |
| CC(=O)Nc1nc(C)c(-c2cc3c(c(S(C)(=O)=O)c2)C(=O)N([C@@H](C)C2CC2)C3)s1 | > 100 µM | > 100 µM | 51.6 µM | > 100 µM | > 100 µM | 39.7 µM | > 100 µM | > 100 µM | > 100 µM | > 100 µM | 31.2 µM | 29.2 µM | 14.2 µM | 1.18 µM | 54.5 µM | 18.8 µM | 23.6 µM | 34.2 µM | 29.5 µM | 28.1 µM |
| COc1ccc(-c2c(C#N)cnc(N)c2-c2nc3cc(C)c(C)cc3[nH]2)cc1 | > 100 µM | > 100 µM | 20.4 µM | > 100 µM | > 100 µM | > 100 µM | 48.3 µM | > 100 µM | 23.8 µM | > 100 µM | 8.86 µM | 22.5 µM | 5.68 µM | 25.6 µM | 6.76 µM | 8.78 µM | 6 µM | 6.03 µM | 6.92 µM | 17.2 µM |
| CCOC(=O)/C=C1\C[C@H](NC(=O)OCc2ccccc2)C(=O)N1CC(=O)OCC | > 100 µM | > 100 µM | > 100 µM | > 100 µM | > 100 µM | > 100 µM | > 100 µM | > 100 µM | > 100 µM | > 100 µM | – | – | – | – | – | – | – | – | – | – |
| CC(C)C(=O)CP(=O)(O)O | > 100 µM | > 100 µM | > 100 µM | > 100 µM | > 100 µM | > 100 µM | > 100 µM | > 100 µM | > 100 µM | > 100 µM | – | – | – | – | – | – | – | – | – | – |
| CCc1ncc(C(C)(O)c2ccccc2)n1Cc1ccccc1 (stereo not given) | > 100 µM | > 100 µM | > 100 µM | > 100 µM | > 100 µM | 40.6 µM | > 100 µM | > 100 µM | > 100 µM | > 100 µM | – | – | – | – | – | – | – | – | – | – |
